Test [1] has as its target 72 kDa type IV collagenase (Homo sapiens) (UniProt P08253). Description: Inhibition of MMP2 at 100 uM.
Test [2] shares this target. Put plainly: Inhibition of MMP2 at 3 uM.
The target in test [3] is T1, Matrilysin (Homo sapiens) (UniProt P09237).
T1 sequence (whole entry): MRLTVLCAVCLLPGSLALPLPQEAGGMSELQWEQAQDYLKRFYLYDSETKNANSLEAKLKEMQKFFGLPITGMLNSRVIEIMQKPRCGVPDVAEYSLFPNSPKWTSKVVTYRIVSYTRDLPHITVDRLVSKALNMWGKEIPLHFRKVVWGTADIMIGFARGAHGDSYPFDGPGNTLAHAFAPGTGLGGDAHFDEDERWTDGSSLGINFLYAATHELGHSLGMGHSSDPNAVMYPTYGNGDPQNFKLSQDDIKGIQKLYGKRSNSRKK
Put plainly: Inhibition of MMP7 at 100 uM.

Test [4] addresses T1, Matrilysin (Homo sapiens). Description: Inhibition of MMP7 at 3 uM.
In test [5] the target is Matrix metalloproteinase-9 (Homo sapiens) (UniProt P14780). Put plainly: Inhibition of MMP9 at 100 uM.
Chain of Matrix metalloproteinase-9 (Homo sapiens) (P14780 whole entry): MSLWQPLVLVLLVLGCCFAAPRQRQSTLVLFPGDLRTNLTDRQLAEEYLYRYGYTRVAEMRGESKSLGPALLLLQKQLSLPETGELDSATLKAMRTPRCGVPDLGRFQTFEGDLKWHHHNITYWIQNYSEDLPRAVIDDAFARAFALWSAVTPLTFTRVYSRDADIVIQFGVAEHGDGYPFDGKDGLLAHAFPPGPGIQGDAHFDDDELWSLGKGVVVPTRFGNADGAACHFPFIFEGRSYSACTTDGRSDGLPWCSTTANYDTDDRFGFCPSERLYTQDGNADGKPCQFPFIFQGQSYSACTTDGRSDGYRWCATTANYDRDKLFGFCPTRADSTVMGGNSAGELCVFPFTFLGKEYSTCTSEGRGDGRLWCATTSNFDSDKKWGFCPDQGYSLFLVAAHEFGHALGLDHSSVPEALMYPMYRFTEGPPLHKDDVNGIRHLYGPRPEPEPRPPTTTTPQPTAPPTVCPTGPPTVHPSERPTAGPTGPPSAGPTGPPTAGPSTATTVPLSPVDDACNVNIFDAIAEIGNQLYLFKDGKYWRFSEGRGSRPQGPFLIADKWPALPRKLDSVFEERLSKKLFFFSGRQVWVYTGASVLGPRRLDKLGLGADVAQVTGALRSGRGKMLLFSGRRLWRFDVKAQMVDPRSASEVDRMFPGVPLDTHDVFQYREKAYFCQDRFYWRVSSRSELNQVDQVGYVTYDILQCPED
Test [6] has the same target. Description: Inhibition of MMP9 at 3 uM.
Test [7] has as its target Matrix metalloproteinase-14 (Homo sapiens) (UniProt P50281). Put plainly: Inhibition of MMP14 at 100 uM.
Test [8] has the same target. Put plainly: Inhibition of MMP14 at 3 uM.
Test [9] deals with 72 kDa type IV collagenase (Homo sapiens) (UniProt P08253). Put plainly: Inhibition of MMP2 at 300 uM.
Chain of 72 kDa type IV collagenase (Homo sapiens) (P08253 110-660 limits assumed): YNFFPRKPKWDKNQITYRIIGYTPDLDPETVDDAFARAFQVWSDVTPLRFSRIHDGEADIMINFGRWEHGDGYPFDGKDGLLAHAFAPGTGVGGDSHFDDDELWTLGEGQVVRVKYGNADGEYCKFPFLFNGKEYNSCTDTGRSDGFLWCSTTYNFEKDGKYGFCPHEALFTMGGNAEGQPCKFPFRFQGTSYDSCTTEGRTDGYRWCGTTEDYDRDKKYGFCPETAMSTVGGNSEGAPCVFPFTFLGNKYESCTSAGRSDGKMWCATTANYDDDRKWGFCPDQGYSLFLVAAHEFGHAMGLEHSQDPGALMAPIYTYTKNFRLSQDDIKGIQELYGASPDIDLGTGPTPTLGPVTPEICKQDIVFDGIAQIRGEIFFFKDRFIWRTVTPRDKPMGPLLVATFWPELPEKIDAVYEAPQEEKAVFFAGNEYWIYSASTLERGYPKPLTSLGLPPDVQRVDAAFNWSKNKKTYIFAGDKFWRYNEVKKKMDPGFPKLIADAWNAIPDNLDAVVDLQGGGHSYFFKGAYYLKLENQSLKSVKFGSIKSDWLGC
Test [10] shares this target. Put plainly: Inhibition of MMP2 at 30 nM.
In test [11] the target is Matrix metalloproteinase-9 (Homo sapiens) (UniProt P14780). Description: Inhibition of MMP9 at 30 nM.
The target of test [12] is 72 kDa type IV collagenase (Homo sapiens) (UniProt P08253). Description: Inhibition of MMP2 at 30 uM.
In test [13] the target is Matrix metalloproteinase-9 (Homo sapiens) (UniProt P14780). Put plainly: Inhibition of MMP9 at 10 uM.
The target is the same in test [14]. Description: Inhibition of MMP9 at 1 uM.
Test [15] concerns the target Carbonic anhydrase 9 (Homo sapiens, UniProt Q16790).
Description: Inhibition of human carbonic anhydrase 9
Test [16] addresses Carbonic anhydrase 2 (Homo sapiens, UniProt P00918). Put plainly: Inhibition of human carbonic anhydrase 2.

Inhibition and Ki data for six compounds are collected here from ChEMBL document CHEMBL1155552, “New hydroxypyrimidinone-containing sulfonamides as carbonic anhydrase inhibitors also acting as MMP inhibitors” (Bioorg Med Chem Lett, 2010).

A value given as a limit tells only on which side of the number the result lay.

As for `NCCCCCNc1ccn(O)c(=O)n1`, the inhibition (in general, the change of the read-out against control, counted positive when it falls) stood at 24% in test [1]; 9% in test [2]; 30% in [3]; 1% in test [4]; 23% in test [5]; 3% in test [6]. In addition, the inhibition amounted to 42% in [7] and 3% in test [8].

With `NCCCCNc1ccn(O)c(=O)n1`, the inhibition worked out at 22% in test [2]; 88% in test [9]; 30% in test [10]; 29% in test [3]; 9% in test [4]; 26% in test [5]. The inhibition in [6] was found to be 6%; in test [11] it was 1%; in test [7] it was 28%.

For `NS(=O)(=O)c1ccc(CCNc2ccn(O)c(=O)n2)cc1`, the inhibition was 86% in test [1]; 19.6% in [12]; 7.4% in test [2]; 38% in test [3]; 67% in [5]; 9% in [13]. Besides, the inhibition is 6% in [14] and 48% in test [7].

On to `NS(=O)(=O)c1ccc(NC(=O)CCCNc2ccn(O)c(=O)n2)cc1`, for which the Ki (commonly a dissociation constant, usually derived from enzyme kinetics or from competition with a known ligand) in [15] came out at 3.4 nM.

`COC(=O)CCCCCNc1ccn(O)c(=O)n1`: the values for the Ki in test [16] and in test [15] were 270000 nM and greater than 1000 nM, respectively.

`NS(=O)(=O)c1ccc(CCNC(=O)CCCCCNc2ccn(O)c(=O)n2)cc1` returned a Ki in test [15] of 4.1 nM.
